The record followed here is patent US8071581B2, “Triazolopyridazine protein kinase modulators” (SGX Pharmaceuticals, Inc., priority 2006, dated 2011).

In test [1] the target is MET kinase (c-MET), kinase domain of human Met (Homo sapiens, UniProt P08581). Description: MET luminescence-based enzyme assay (Kinase-Glo). (In general: In Kinase-Glo more light means more ATP remaining.)
Test [2] deals with GTL16. Description: GTL16 cell assay (EC50). In kind it is cell-based. The conditions noted are these: Homo sapiens, GTL 16; Table 1. As for the experimental part:
Compounds were tested in the following assays in duplicate. 96-well XTT assay: Cells were grown in growth media containing various concentrations of compounds (duplicates) on a 96-well flat bottom plate for 72 hours at 37° C. in 5% CO2. The starting cell number was 5000 cells per well and volume was 120 μl. At the end of the 72-hour incubation, 40 μl of XTT labeling mixture (50:1 solution of sodium 3′-[1-(phenylaminocarbonyl)-3,4-tetrazolium]-bis(4-methoxy-6-nitro) benzene sulfonic acid hydrate and Electron-coupling reagent: PMS (N-methyl dibenzopyrazine methyl sulfate) were added to each well of the plate. After an additional 2-6 hours […] with a spectrophotometer.

MET kinase (c-MET), kinase domain of human Met, sequence (P08581 1078-1345 limits assumed): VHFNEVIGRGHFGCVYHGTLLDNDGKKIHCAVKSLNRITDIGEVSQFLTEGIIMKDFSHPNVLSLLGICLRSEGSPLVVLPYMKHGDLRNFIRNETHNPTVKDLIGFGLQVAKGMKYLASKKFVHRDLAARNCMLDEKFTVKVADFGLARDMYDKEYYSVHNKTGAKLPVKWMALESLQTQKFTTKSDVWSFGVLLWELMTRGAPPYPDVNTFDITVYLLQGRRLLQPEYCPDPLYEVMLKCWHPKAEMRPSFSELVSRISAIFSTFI

For the compound `Cc1cccc(-c2ccc3nnc(Cc4ccc5ncccc5c4)n3n2)c1` [compound 35], the IC50 (as a rule, the concentration that inhibits the measured activity by half) in test [1] was less than 100 nM. Besides, the EC50 – broadly, the midpoint of the concentration-response curve – in test [2] lay within 100 to 1000 nM.
In turn, `Cc1ccc(-c2ccc3nnc(Cc4ccc5ncccc5c4)n3n2)cc1` [compound 36] had an IC50 in test [1] of less than 100 nM. The compound further gave an EC50 in test [2] of less than 100 nM.
`CNS(=O)(=O)c1ccc(-c2ccc3nnc(Cc4ccc5ncccc5c4)n3n2)cc1` [compound 37] gave an IC50 in test [1] of 100 to 1000 nM. This compound gave an EC50 in test [2] of less than 100 nM.
In turn, `Nc1nc2ccc(Cc3nnc4ccc(-c5ccccc5)nn34)cc2s1` [compound 42] returned an IC50 in test [1] of 100 to 1000 nM. Further, in test [2], the EC50 was in the range of 1000 to 10000 nM.
In turn, `c1ccc(-c2ccc3nnc(Cc4ccc5ncsc5c4)n3n2)cc1` [compound 43] showed an IC50 in test [1] of 100 to 1000 nM. The compound also yielded an EC50 in test [2] of 100 to 1000 nM.
Take `c1ccc(-c2ccc3nnc(Cc4ccc5nc[nH]c5c4)n3n2)cc1` [compound 45, 3-(3H-Benzoimidazol-5-ylmethyl)-6-phenyl-[1,2,4]triazolo[4,3-b]pyridazine]: the IC50 in test [1] lay in the range of 100 to 1000 nM. In addition, the EC50 in test [2] lay in the range of 100 to 1000 nM.
For `C/C=C/c1ccc2nnc(Cc3ccc4ncccc4c3)n2n1` [compound 46], the IC50 in test [1] lay within 100 to 1000 nM. This compound also registered an EC50 in test [2] of 100 to 1000 nM.
Take `CCNC(=O)c1cccc(-c2ccc3nnc(Cc4ccc5ncccc5c4)n3n2)c1` [compound 47]: the IC50 in test [1] was less than 100 nM. The EC50 in test [2] was 100 to 1000 nM.
The corresponding values for `CNS(=O)(=O)c1cccc(-c2ccc3nnc(Cc4ccc5ncccc5c4)n3n2)c1` [compound 48] are less than 100 nM and less than 100 nM.
In the case of `CS(=O)(=O)c1cccc(-c2ccc3nnc(Cc4ccc5ncccc5c4)n3n2)c1` [compound 49], the IC50 in test [1] was less than 100 nM. In test [2], this compound gave an EC50 of less than 100 nM.
Regarding `CS(=O)(=O)Nc1cccc(-c2ccc3nnc(Cc4ccc5ncccc5c4)n3n2)c1` [compound 51], the IC50 in test [1] was less than 100 nM. Also, the EC50 in test [2] was in the range of 100 to 1000 nM.
As for `CC(=O)Nc1ccc(-c2ccc3nnc(Cc4ccc5ncccc5c4)n3n2)cc1` [compound 52], the IC50 in test [1] was less than 100 nM. The compound further gave an EC50 in test [2] of 100 to 1000 nM.
On to `Fc1ccccc1-c1ccc2nnc(Cc3ccc4ncccc4c3)n2n1` [compound 53], for which the IC50 in test [1] lay in the range of 100 to 1000 nM. For the same compound, in test [2], the EC50 is 100 to 1000 nM.
`OCc1ccc(-c2ccc3nnc(Cc4ccc5ncccc5c4)n3n2)cc1` [compound 54] yielded an IC50 in test [1] of less than 100 nM. In test [2], this compound returned an EC50 of 100 to 1000 nM.
For the compound `NCc1cccc(-c2ccc3nnc(Cc4ccc5ncccc5c4)n3n2)c1` [compound 55], in test [1], the IC50 is less than 100 nM. In test [2], this compound displayed an EC50 of 100 to 1000 nM.
As for `CNC(=O)c1cc(F)cc(-c2ccc3nnc(Cc4ccc5ncccc5c4)n3n2)c1` [compound 56], the half-maximal inhibitory concentration (IC50) in test [1] lay within 100 to 1000 nM. In test [2], the EC50 fell in the range of 100 to 1000 nM.
Compound `CC(=O)Nc1cccc(-c2ccc3nnc(Cc4ccc5ncccc5c4)n3n2)c1` [compound 57] registered an IC50 in test [1] of 100 to 1000 nM. This compound showed an EC50 in test [2] of 1000 to 10000 nM.
The corresponding values for `CNC(=O)c1cccc(-c2ccc3nnc(Cc4ccc5ncccc5c4)n3n2)c1` [compound 58] are 100 to 1000 nM and 1000 to 10000 nM.
Consider `N#CCc1cccc(-c2ccc3nnc(Cc4ccc5ncccc5c4)n3n2)c1` [compound 61], for which the IC50 in test [1] is less than 100 nM. In addition, the EC50 in test [2] is 100 to 1000 nM.
The corresponding values for `O=S(=O)(c1ccc(-c2ccc3nnc(Cc4ccc5ncccc5c4)n3n2)cc1)N1CCOCC1` [compound 62] are less than 100 nM and 100 to 1000 nM.
The corresponding values for `Fc1ccc(-c2ccc3nnc(Cc4ccc5ncccc5c4)n3n2)cc1` [compound 63] are 100 to 1000 nM and 100 to 1000 nM.
As to `CN(C)S(=O)(=O)c1cccc(-c2ccc3nnc(Cc4ccc5ncccc5c4)n3n2)c1` [compound 64], in test [1], the IC50 was less than 100 nM. The compound further registered an EC50 in test [2] of less than 100 nM.
In turn, `CNc1ccc(-c2ccc3nnc(Cc4ccc5ncccc5c4)n3n2)cc1` [compound 65] gave an IC50 in test [1] of less than 100 nM. The same compound yielded an EC50 in test [2] of less than 100 nM.
In test [1], `CNC(=O)c1ccc(-c2ccc3nnc(Cc4ccc5ncccc5c4)n3n2)cc1` [compound 66] had an IC50 of less than 100 nM. In addition, the EC50 in test [2] fell in the range of 100 to 1000 nM.
`CN(C)c1cccc(-c2ccc3nnc(Cc4ccc5ncccc5c4)n3n2)c1` [compound 67]: the IC50 in test [1] was 100 to 1000 nM. Also, the EC50 in test [2] lay within 100 to 1000 nM.
In the case of `Cn1cnc2ccc(Cc3nnc4ccc(-c5ccccc5)nn34)cc21` [compound 68, 3-(3-Methyl-3H-benzoimidazol-5-ylmethyl)-6-phenyl-[1,2,4]triazolo[4,3-b]pyridazine], the IC50 in test [1] was in the range of 100 to 1000 nM. The EC50 in test [2] was in the range of 100 to 1000 nM.
In test [1], `N#Cc1cc(-c2ccc3nnc(Cc4ccc5ncccc5c4)n3n2)ccc1F` [compound 69] displayed an IC50 of 100 to 1000 nM. The EC50 in test [2] is 1000 to 10000 nM.
`Fc1cc(F)cc(-c2ccc3nnc(Cc4ccc5ncccc5c4)n3n2)c1` [compound 70] displayed an IC50 in test [1] of less than 100 nM. The compound further had an EC50 in test [2] of 100 to 1000 nM.
The corresponding values for `CN(C)C(=O)c1cc(F)cc(-c2ccc3nnc(Cc4ccc5ncccc5c4)n3n2)c1` [compound 71] are 100 to 1000 nM and 100 to 1000 nM.
The compound `O=C(NCC(F)(F)F)c1ccc(-c2ccc3nnc(Cc4ccc5ncccc5c4)n3n2)cc1` [compound 72] gave an IC50 in test [1] of less than 100 nM. The compound also registered an EC50 in test [2] of 100 to 1000 nM.
The corresponding values for `O=C(NCCO)c1ccc(-c2ccc3nnc(Cc4ccc5ncccc5c4)n3n2)cc1F` [compound 74] are less than 100 nM and 100 to 1000 nM.
In test [1], `CCNC(=O)c1ccc(-c2ccc3nnc(Cc4ccc5ncccc5c4)n3n2)cc1F` [compound 75] yielded an IC50 of less than 100 nM. This compound registered an EC50 in test [2] of less than 100 nM.
`Cc1cc(F)cc(-c2ccc3nnc(Cc4ccc5ncccc5c4)n3n2)c1` [compound 76] returned an IC50 in test [1] of less than 100 nM. Besides, the EC50 in test [2] was less than 100 nM.
As to `Fc1ccc(-c2ccc3nnc(Cc4ccc5ncccc5c4)n3n2)cc1C(F)(F)F` [compound 77], the IC50 in test [1] fell in the range of 100 to 1000 nM. In test [2], this compound showed an EC50 of less than 100 nM.
The corresponding values for `FC(F)(F)c1cccc(-c2ccc3nnc(Cc4ccc5ncccc5c4)n3n2)c1` [compound 78] are less than 100 nM and less than 100 nM.
With `CC(c1ccc2ncsc2c1)c1nnc2ccc(-c3cnn(C)c3)nn12` (stereo not drawn) [compound 79], the IC50 in test [1] was less than 100 nM. The concentration giving a half-maximal response (EC50) in test [2] is less than 100 nM.
In test [1], `CNC(=O)c1ccc(-c2ccc3nnc(C(C)c4ccc5ncccc5c4)n3n2)cc1F` (stereo not drawn) [compound 80] came in with an IC50 of less than 100 nM. Further, in test [2], the EC50 is less than 100 nM.
Consider `CC(c1ccc2ncsc2c1)c1nnc2ccc(-c3cccc(C#N)c3)nn12` (stereo not drawn) [compound 81], for which, in test [1], the IC50 was less than 100 nM. Further, in test [2], the EC50 was less than 100 nM.
For `CNC(=O)c1ccc(-c2ccc3nnc(C(C)c4ccc5ncsc5c4)n3n2)cc1F` (stereo not drawn) [compound 82], the IC50 in test [1] is less than 100 nM. The compound further returned an EC50 in test [2] of less than 100 nM.
`Cc1cc2ncccc2cc1Cc1nnc2ccc(-c3cnn(C)c3)nn12` [compound 84] yielded an IC50 in test [1] of less than 100 nM. The compound also displayed an EC50 in test [2] of less than 100 nM.
Consider `Cc1cc2ncccc2cc1Cc1nnc2ccc(-c3cccc(C#N)c3)nn12` [compound 85], for which the IC50 in test [1] is less than 100 nM. The same compound yielded an EC50 in test [2] of less than 100 nM.
In test [1], `Cn1cc(-c2ccc3nnc(Cc4c(F)cc5ncccc5c4F)n3n2)cn1` [compound 87] showed an IC50 of less than 100 nM. In test [2], this compound registered an EC50 of less than 100 nM.
